Data taken from PubChem BioAssay (NCI).
Values joined by “and” are separate entries in the source; they are usually repeats but may differ in a detail not shown here. Equal entries are not always repeated.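 Test compounds were applied to cells in 96-well plates for 48 hours at 5 doses. GI50 marks 50% less growth. The concentration for full growth arrest is given as TGI.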

Assays:
Assay in all cases: NCI anticancer screen, dose series, 48 h
[1] = test system: DLD-1 colon
[2] = test system: XF 498 CNS
[3] = test system: LXFL 529 NSCLC
[4] = test system: M19-MEL melanoma
[5] = test system: RXF-631 renal
[6] = test system: KM20L2 colon
[7] = test system: SNB-78 CNS
[8] = test system: DMS 114 small cell lung
[9] = test system: MDA-N

| SMILES | TGI [1] | TGI [2] | TGI [3] | TGI [4] | TGI [5] | TGI [6] | TGI [7] | TGI [8] | also measured |
| --- | --- | --- | --- | --- | --- | --- | --- | --- | --- |
| CCOC(=O)c1oc2c(OC)ccc3c2c1CCC3 | > 100 µM | > 100 µM | > 100 µM | > 100 µM | > 100 µM | > 100 µM | > 100 µM | > 100 µM | – |
| O=C1/C(=C/c2cccnc2)SC(=S)N1Cc1ccco1 | – | – | – | – | – | – | – | – | TGI [9]: 6.29 µM |
| CC1CC(C[N+](=O)[O-])CC2(C1)OCCO2 (stereo not given) | > 100 µM | – | > 100 µM | > 100 µM | – | > 100 µM | > 100 µM | > 100 µM | – |
| O=C(O)C1C2C=CC(O2)C1C(=O)NCc1cccnc1 (stereo not given) | – | – | – | – | – | – | – | – | TGI [9]: > 100 µM |
| CCCCC(C(=O)C(=O)Nc1ccc(C)cc1C)C(=O)C(C)C (stereo not given) | > 100 µM | > 100 µM | > 100 µM | > 100 µM | > 100 µM | > 100 µM | > 100 µM | > 100 µM | – |
| CC(=O)OCCOCn1c2ccccc2c2c3c(c4c5ccccc5n(COCCOC(C)=O)c4c21)C(=O)N(Cc1ccccc1)C3=O | > 100 µM | – | > 100 µM | > 100 µM | – | > 100 µM | > 100 µM | – | – |
| COc1cc(/C=C/C(=O)c2cccc3ccccc23)cc(OC)c1OC | – | 20.5 µM | 10.3 µM | 38.2 µM | – | 13.6 µM | 12.8 µM | – | – |
| O=C1C=CC2(CCCCCCC2=O)CC1 (stereo not given) | > 100 µM | – | > 100 µM | > 100 µM | – | > 100 µM | > 100 µM | – | – |
| CC(=O)OC1C[C@H]2C(OC(=O)c3ccccc3)C3C4(OC(C)=O)COC4C[C@H](OC(C)=O)[C@@]3(C)C(OC(C)=O)[C@H](OC(C)=O)C(=C1C)C2(C)C (stereo not given in full) | > 100 µM | 63.8 µM | > 100 µM | > 100 µM | – | > 100 µM | > 100 µM | > 100 µM | – |
| O/N=C1/CCCC/C1=C/C=C/c1ccccc1 | > 100 µM | – | > 100 µM | 43.8 µM | – | 33.3 µM | 77.7 µM | – | – |
| O=C(NCCCCCCCCCCCCNC(=O)c1cnc2ccccc2n1)c1cnc2ccccc2n1 | > 100 µM | – | > 100 µM | > 100 µM | > 100 µM | > 100 µM | > 100 µM | > 100 µM | – |
| CC(=O)Nc1ccccc1-c1nc2ccccc2nc1-c1ccccc1 | > 100 µM | > 100 µM | > 100 µM | > 100 µM | – | > 100 µM | > 100 µM | > 100 µM | – |
| O=C1c2c(O)cccc2C(C(=O)CCCCCC(=O)C2c3cccc(O)c3C(=O)c3c(O)cccc32)c2cccc(O)c21 | 8.88 µM and 16.7 µM | 1.2 µM | 2.78 µM and 14.2 µM | 2.5 µM and 9.2 µM | 7.98 µM and 13.6 µM | 13.1 µM and 47.6 µM | – | 1.29 µM and 9.22 µM | GI50 [1]: 7.67 µM; GI50 [3]: 7.58 µM; GI50 [4]: 2.4 µM; GI50 [5]: 2.99 µM; GI50 [6]: 15.4 µM; GI50 [7]: 7.55 µM; GI50 [8]: 3.16 µM |
| O=S(=O)(C1=CC(S(=O)(=O)c2ccccc2)COC1)c1ccccc1 (stereo not given) | > 100 µM | > 100 µM | > 100 µM | > 100 µM | – | – | – | > 100 µM | – |
| Cc1ccccc1/C=C/c1csnn1 | > 74.3 µM | > 100 µM | > 100 µM | > 100 µM | > 100 µM | > 100 µM | > 100 µM | > 56 µM | – |
| COc1ccc(C(c2ccccc2C(=O)O)c2ccc(OC)c3ccccc23)c2ccccc12 | 22.2 µM | 46.7 µM | 20.7 µM | 27.6 µM | – | 26.5 µM | 50.4 µM | 21.1 µM | – |
| O=C(CCC(=O)Nc1ccccc1C(F)(F)F)N/N=C1\C(=N\NC(=O)CCC(=O)Nc2ccccc2C(F)(F)F)C(c2ccc3c(c2)OCO3)Oc2ccccc21 (stereo not given) | > 100 µM | > 87.6 µM | – | > 100 µM | > 100 µM | > 100 µM | > 100 µM | > 22.3 µM | – |
| COc1cccc(/C=N/[N-]C(=O)c2ccncc2)c1[O-].[Mn+2].[OH3+] | > 100 µM | 86.9 µM | > 100 µM | 46.4 µM | – | > 100 µM | > 100 µM | 58.7 µM | GI50 [1]: 5.23 µM; GI50 [2]: 12.3 µM; GI50 [3]: 15.3 µM; GI50 [4]: 7.54 µM; GI50 [6]: 4.51 µM; GI50 [7]: > 100 µM; GI50 [8]: 14.6 µM |
| CCc1cccc(C(C)C)c1NC(=O)CC1Sc2ccccc2NC1=O (stereo not given) | > 100 µM | > 100 µM | > 100 µM | > 100 µM | – | – | > 100 µM | > 100 µM | – |
| Cc1noc2cccc(O)c12 | > 100 µM | > 100 µM | > 100 µM | > 100 µM | – | > 100 µM | > 100 µM | > 100 µM | – |
| COC(=O)c1cc(-c2ccc3ccccc3c2)[nH]c(=O)c1C#N | – | – | – | – | – | – | – | – | TGI [9]: > 100 µM |

| SMILES | TGI [1] | TGI [2] | TGI [3] | TGI [4] | TGI [5] | TGI [6] | TGI [7] | TGI [8] | also measured |
| --- | --- | --- | --- | --- | --- | --- | --- | --- | --- |
| CC[C@@]1(O)C(=O)OCc2c1cc1n(c2=O)Cc2cc3cc(Cl)ccc3nc2-1 | > 100 µM | – | 2.22 µM | 0.224 µM and 0.19 µM | – | 0.144 µM and 0.461 µM | – | – | GI50 [1]: 0.108 µM and 0.346 µM; GI50 [3]: 0.108 µM; GI50 [4]: 0.0167 µM and 0.0195 µM; GI50 [9]: 0.0286 µM; TGI [9]: 0.374 µM; GI50 [6]: 0.00997 µM and 0.0271 µM; GI50 [7]: 0.0711 µM and 0.0581 µM; GI50 [8]: < 0.001 µM |
| Cc1ccccc1NC(=O)CC1C(=O)Nc2ccccc2S1=O (stereo not given) | > 100 µM | > 100 µM | > 100 µM | > 100 µM | > 100 µM | > 100 µM | > 100 µM | > 100 µM | – |
| Cc1cc(=O)oc2c(C3=NN(C=O)C(c4ccccc4)C3)c(O)ccc12 (stereo not given) | > 100 µM | 42.1 µM | > 100 µM | > 100 µM | > 100 µM | > 100 µM | > 96 µM | > 100 µM | TGI [9]: > 100 µM |
| NC1=NN(c2ccccc2)C(=O)C1C(=O)C(=O)Nc1ccc(Cl)cc1 (stereo not given) | > 100 µM | – | > 100 µM | > 100 µM | > 100 µM | > 100 µM | > 100 µM | > 100 µM | – |
| CCCCCC/C=C/C#CCCCCCCCC(=O)O | – | – | – | – | – | – | – | – | TGI [9]: > 100 µM |
| NC(Cc1ccccc1)C(=O)OCN1C(=O)C2C3C=CC(C2C1=O)C1C2C(=O)N(COC(=O)C(N)Cc4ccccc4)C(=O)C2C31 (stereo not given) | 51.4 µM and 60.6 µM | 71.7 µM | 39.7 µM and 37.9 µM | 38.4 µM | – | 67.2 µM and 51.5 µM | – | 40.4 µM and 33.8 µM | GI50 [4]: 21.6 µM |
| C=C1CCC2CC1C(C(=O)c1c[nH]c3ccccc13)=NC2(C)C (stereo not given) | – | – | – | – | – | – | – | – | TGI [9]: > 100 µM |
| C[C@H]1CCC/C=C/C2CC(OC(=O)CN(C)C)CC2C(OC(=O)CN(C)C)/C=C/C(=O)O1 (stereo not given in full) | > 37.1 µM | 1.42 µM | 8.4 µM | 0.211 µM | – | 0.979 µM | > 100 µM | > 30.2 µM | GI50 [1]: 0.443 µM; GI50 [2]: 0.179 µM; GI50 [3]: 0.417 µM; GI50 [4]: 0.0406 µM; GI50 [9]: 0.427 µM; TGI [9]: > 100 µM; GI50 [6]: 0.266 µM; GI50 [7]: 0.227 µM; GI50 [8]: 0.479 µM |
| CC(C)N(C(=O)C12C3C4C1C1C2C3C41C(=O)C(C)(C)C)C(C)C (stereo not given) | > 100 µM | > 100 µM | > 100 µM | > 100 µM | – | > 100 µM | > 100 µM | > 100 µM | – |
| C#CCN(N=O)C(=O)NC(CCCCNC(=O)OCc1ccccc1)C(=O)OCc1ccccc1 (stereo not given) | 42.7 µM | – | 31.7 µM | > 100 µM | – | > 100 µM | > 100 µM | 44 µM | – |
| CC(Oc1cc2oc(=O)cc(-c3ccccc3)c2cc1Cl)C(=O)O (stereo not given) | > 100 µM | > 100 µM | > 100 µM | > 100 µM | > 100 µM | > 100 µM | > 100 µM | > 100 µM | – |
| COC(=O)C(=O)C(CC(=O)Nc1cc(Cl)ccc1Cl)C(=O)OC (stereo not given) | – | – | > 100 µM | – | – | > 100 µM | > 100 µM | > 100 µM | – |
| CC1=C(C(=O)Nc2cccc(Cl)c2)C(c2ccccc2O)C(C(=O)Nc2cccc(Cl)c2)=C(C)N1 | 33 µM | – | 39.3 µM | 40.6 µM | – | 37.7 µM | 57.2 µM | 54.6 µM | – |
| CCCCCCCCCCC(=O)CCCCCCC(=O)O | 47.2 µM | 97.8 µM | 40.1 µM | 74.7 µM | 43.3 µM | – | > 100 µM | 50.3 µM | – |
| N#CCc1c(F)c(F)c(F)c(F)c1F | – | – | – | – | – | – | – | – | TGI [9]: > 100 µM |
| Nc1n[n+]([O-])c2cc([N+](=O)[O-])ccc2[n+]1[O-] | – | – | – | – | – | – | – | – | TGI [9]: 4.93 µM |
| Oc1ccc2ccccc2c1CCc1c(O)ccc2ccccc12 | – | – | – | – | – | – | – | – | TGI [9]: 27.6 µM |
| N#CCCN(CCC#N)c1ccc(/C=C(/NC(=O)c2cc([N+](=O)[O-])ccc2Cl)C(=O)N=[N+]=[N-])cc1 | > 100 µM | – | > 100 µM | > 100 µM | > 100 µM | > 100 µM | > 100 µM | > 100 µM | – |
| O=C(CCc1nc(=S)[nH][nH]1)Nc1cc(Cl)ccc1Cl | > 100 µM | – | > 100 µM | > 100 µM | > 100 µM | > 100 µM | – | > 100 µM | – |
| N#Cc1ncc(C(Cl)Cl)nc1Cl | – | – | – | – | – | – | – | – | TGI [9]: 3.07 µM |
